Data reported in US20120083522A1, “MODULATION OF INFLAMMATORY RESPONSES BY FACTOR XI” (Isis Pharmaceuitcals, inc., priority 2009, published 2012).
In the oligonucleotide strings, read from the 5' end, every base follows the letter of its sugar. An asterisk marks phosphorothioate; unmarked linkages are phosphodiester. Other units and linkages are bracketed, terminal groups are in braces. A string of capitals states the bases alone. e = 2'-O-(2-methoxyethyl) (MOE); [5mC] = 5-methylcytosine; d = 2'-deoxy (DNA)

Experiments:
murine Factor XI mRNA = assay: In vivo antisense inhibition of murine Factor XI: liver RNA analysis (Example 10); details: BALB/c mice, relative to PBS control
Procedure: Several antisense oligonucleotides targeted to murine Factor XI mRNA (GENBANK Accession No. NM_028066.1, incorporated herein as SEQ ID NO: 6) showing statistically significant dose-dependent inhibition from the in vitro study were evaluated in vivo. BALB/c mice were treated with ISIS 404057 ([…], target start site 487, incorporated herein as SEQ ID NO: 10) and ISIS 404071 ([…], target start site 869, incorporated herein as SEQ ID NO: 11).
BALB/c mice were injected with 5 mg/kg, 10 mg/kg, 25 mg/kg, or 50 mg/kg of ISIS 404057 or ISIS 404071 twice a week for 3 weeks. A control group of mice was injected with phosphate buffered saline (PBS) twice a week for 3 weeks. Mice were sacrificed 5 days after receiving the last dose. Whole liver was harvested for RNA analysis and plasma was collected for protein analysis.
RNA was extracted from liver tissue for real-time PCR analysis of Factor XI. […] Results are presented as percent inhibition of Factor XI, relative to control.

[1] = system: IFN-γ, IL-10, IL-12, IL-1β, IL-2, IL-4, IL-5, TNF-α, KC; assay: Colitis Study E: cytokine levels in colon (multiplex ELISA); type: in vivo, Swiss Webb mice; details: for IFN-γ level in the colon / IL-1β level in the colon / IL-2 level in the colon / IL-4 level in the colon / IL-5 level in the colon / IL-10 level in the colon / IL-12 level in the colon / KC level in the colon / TNF-α level in the colon: DSS-treated mice
Procedure: Two groups 8 Swiss Webb mice were dosed with 40 mg/kg of ISIS 404071 injected subcutaneously twice a week for 3 weeks. Two control groups of 8 Swiss Webb mice were dosed with PBS subcutaneously twice a week for 3 weeks. Both the ASO treated groups and one of the control groups were then given 4% DSS in distilled water for 7 days ad libitum. One of the ASO and DSS treated groups was also given intravenous injections of 20 μg of recombinant human Factor XI protein (Haematologic Technologies Inc.) for 7 consecutive days, starting the day before DSS treatment. Mice were sacrificed at the end of the study on day 7 after DSS was administered.
The cytokine levels of IFN-γ, IL-10, IL-12, IL-1β, IL-2, IL-4, IL-5, TNF-α, and keratinocyte chemoattractant (KC) were measured in the colon of the mice groups at the end of the study on day 7 after DSS was administered. Colons were homogenized on ice in PBS supplemented with protease inhibitors (Sigma, St. Louis, Mo.) and extracted with rotation at 4° C. for 1 hour. After removal of insoluble material by centrifugation, colon homogenates were used for the cytokine analysis by multiplex ELISA (Mouse TH1/TH2 9-Plex Ultra-Sensitive Kit, Meso Scale Discovery, Gaithersburg, Md.) according to the manufacture's protocol. Cytokine levels in colon extracts were normalized to the protein concentration measured by protein assay kit (BioRad, Hercules, Calif.). The levels of pro-inflammatory cytokines, IFN-γ, IL-1β, IL-10, IL-2, IL-5, TNF-α, and KC were elevated by DSS administration, and were decreased by treatment with ISIS 404071.

[2] = system: OVA/alum-induced asthma model; assay: OVA-induced asthma model: BAL eosinophil recruitment (Example 13); type: in vivo, BALB/c mice
Procedure: The effect of antisense oligonucleotide inhibition of Factor XI and its role in ameliorating asthma was evaluated in an OVA/alum-induced asthma model. Administration of ovalbumin to animals is a well known method to induce […] and has been previously described by Henderson et al. (J. Exp. Med., 1996, 184: 1483-1494).
The mice were divided into four treatment groups of 5 mice each. One group received subcutaneous injections of ISIS 404071 at a dose of 50 mg/kg twice a week for 4 weeks. One group of mice received subcutaneous injections of control oligonucleotide, ISIS 421208, which is a mismatch oligonucleotide sequence of ISIS 404071, at a dose of 50 mg/kg twice a week for 4 weeks. Two groups of mice received subcutaneous injections of PBS twice a week for 4 weeks. One PBS group remained untreated and served as the control group. The second PBS group and both the oligonucleotide treated groups were injected with OVA/alum on days 0 and 14 and nebulized with OVA in PBS on days 24, 25, and 26. The first OVA application served to sensitize the mice against OVA while the second was a challenge application to provoke an asthmatic reaction. Two days following the final dose, the mice were euthanized, bronchial lavage (BAL) was collected and analyses done.
Bronchial asthma, even in its mild form, is characterized by local infiltration and activation of inflammatory and immunoeffector cells, including T lymphocytes, macrophages, eosinophils, and mast cells (Smith D. L. et al., Am. Rev. Respir. Dis. 1993. 148: 523-532). The effect of treatment with ISIS 404071 on bronchoalveolar lavage (BAL) eosinophil recruitment was assessed. BAL cells were stained with hemotoxylin and eosin (H&E). The results are presented in Table 49 as a percentage of total cells in BAL.

[3] = system: DSS-induced colitis model; assay: Colitis Study A: colon tissue histopathology

## TGGTAATCCACTTTCAGAGG (eT*eG*eG*eT*eA*dA*dT*d[5mC]*d[5mC]*dA*d[5mC]*dT*dT*dT*d[5mC]*eA*eG*eA*eG*eG) [ISIS 404071]
Murine Factor XI mRNA; 5 mg/kg twice a week for 3 weeks
  % inhibition: 72%
Murine Factor XI mRNA; 10 mg/kg twice a week for 3 weeks
  % inhibition: 82%
Murine Factor XI mRNA; 25 mg/kg twice a week for 3 weeks
  % inhibition: 93%
Murine Factor XI mRNA; 50 mg/kg twice a week for 3 weeks
  % inhibition: 96%
[1]; Colitis Study E, day 7
  pro-inflammatory cytokine levels in colon: IFN-γ, IL-1β, IL-10, IL-2, IL-5, TNF-α, KC (in words): decreased
[1]; day 7, no rFXI
  IFN-γ level in the colon: 1.10 pg/mg
  IL-1β level in the colon: 50 pg/mg
  IL-2 level in the colon: 0.11 pg/mg
  IL-4 level in the colon: 0.012 pg/mg
  IL-5 level in the colon: 0.04 pg/mg
  IL-10 level in the colon: 4.7 pg/mg
  IL-12 level in the colon: 64 pg/mg
  KC level in the colon: 27 pg/mg
  TNF-α level in the colon: 0.24 pg/mg
[1]; day 7, plus rFXI 20 ug/day
  IFN-γ level in the colon: 4.51 pg/mg
  IL-1β level in the colon: 103 pg/mg
  IL-2 level in the colon: 0.28 pg/mg
  IL-4 level in the colon: 0.004 pg/mg
  IL-5 level in the colon: 0.17 pg/mg
  IL-10 level in the colon: 5.8 pg/mg
  IL-12 level in the colon: 96 pg/mg
  KC level in the colon: 62 pg/mg
  TNF-α level in the colon: 0.91 pg/mg
[2]
  BAL eosinophil recruitment (in words): decreased the eosinophil recruitment
[2]; percentage of total cells in BAL, 50 mg/kg s.c. twice a week for 4 weeks
  Eosinophils: 32%
[3]; FIG. 8
  colon histology, lesions (in words): significantly fewer mucosa ulcerative lesions
[3]; FIG. 8, listed as Factor XI
  colon histology, lesions (in words): significantly milder ulcerative colitis lesions
[3]; FIG. 8D, DSS control 2-4/animal
  mucosa ulcers: > 1 /animal
